From PMC7802075 (ACS Infectious Diseases, 2020)
Where a SMILES comes first, the peptide text is derived from it.

molecular target: T1, LmjIPCS (inositol phosphorylceramide synthase from L. major) (Leishmania major, UniProt E9AFX2); assay: biochemical; format: biochemical; parameters: inhibition: dose or concentration left out as unconfirmed; conditions: not given
T1 sequence (E9AFX2 1-338): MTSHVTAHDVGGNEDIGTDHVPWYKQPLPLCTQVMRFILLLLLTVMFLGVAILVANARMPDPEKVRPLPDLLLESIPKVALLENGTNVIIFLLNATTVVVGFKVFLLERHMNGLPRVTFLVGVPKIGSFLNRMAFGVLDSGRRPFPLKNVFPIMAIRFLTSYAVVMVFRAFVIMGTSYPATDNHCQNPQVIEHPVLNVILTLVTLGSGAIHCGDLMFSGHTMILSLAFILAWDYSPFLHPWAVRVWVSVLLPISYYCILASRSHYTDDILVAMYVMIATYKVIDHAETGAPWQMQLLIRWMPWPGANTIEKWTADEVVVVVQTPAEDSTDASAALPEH

SMILES | 20mM inhibition LmjIPCS [%]
N=C(N)NC(=O)c1nc(Cl)c(N)nc1N [AMILORIDE] | 52
CCN1CCN(C(=O)N[C@@H](C(=O)N[C@@H]2C(=O)N3[C@@H]2SC(C)(C)[C@@H]3C(=O)O)c2ccccc2)C(=O)C1=O [PIPERACILLIN] | 60
CC(Cc1cccc(C(F)(F)F)c1)NCCOC(=O)c1ccccc1 (stereo not shown) [BENFLUOREX] | 65
Cc1cc(O)cc(C)c1Cl [CHLOROXYLENOL] | 53
CCN(CC)CCNc1ccc(CO)c2sc3ccccc3c(=O)c12 [HYCANTHONE] | 46
COc1cc2nc(N(C)CCCNC(=O)C3CCCO3)nc(N)c2cc1OC (stereo not shown) [ALFLUZOCIN] | 8
Nc1ncnc2c1ncn2[C@@H]1O[C@H](CO)[C@@H](O)[C@H]1O [ADENOSINE] | 41
CC1(C)S[C@@H]2[C@H](NC(=O)[C@H](N)c3ccc(O)cc3)C(=O)N2[C@H]1C(=O)O [AMOXICILLIN] | 41
CCCCCC(=O)O[C@]1(C(C)=O)CC[C@H]2[C@@H]3CCC4=CC(=O)CC[C@]4(C)[C@H]3CC[C@@]21C [HYDROXYPROGESTERONE CAPROATE] | 57
CNNC [1,2-DIMETHYLHYDRAZINE] | 15
CCOC(=O)C1=C(O)C(=O)N(Cc2ccccc2)C1 | -1.71
CC(C)C[C@H](N)C(=O)N[C@@H](C)C(=O)O [L-LEUCYL-L-ALANINE] (H-Leu-Ala-OH) | 5.46
CCN1CCCC1CNC(=O)c1cc(S(N)(=O)=O)ccc1OC (stereo not shown) [SULPIRIDE] | 43
COc1ccc2cc1Oc1ccc(cc1)C[C@H]1c3c(cc4c(c3Oc3cc5c(cc3OC)CCN(C)[C@@H]5C2)OCO4)CCN1C [CEPHARANTHINE] | 59

same assay, conditions: NINDS set screen, single concentration printed as 20mM

20mM inhibition LmjIPCS [%] | SMILES
52 | N#Cc1ccc2c(c1)N(CCCN1CCC(O)CC1)c1ccccc1S2 [PERICIAZINE]
66 | CC12CC3CC(C)(C1)CC(N)(C3)C2 [MEMANTINE]
55 | CC[C@]12CCCN3CCc4c(n(c5ccccc45)C(=O)C1)[C@@H]32 [VINBURNINE]

same assay, conditions: NINDS set screen; read-out: inhibition LmjIPCS

inhibition [%] | SMILES
18 | COc1c(OC)c2occc2c2oc(=O)ccc12 [PIMPINELLIN]
-11 | C#C[C@]1(O)CC[C@H]2[C@@H]3CCc4cc(O)ccc4[C@H]3CC[C@@]21C [ETHINYL ESTRADIOL]
-1.06 | CC(=O)S[C@@H]1CC2=CC(=O)CC[C@]2(C)[C@H]2CC[C@@]3(C)[C@@H](CC[C@@]34CCC(=O)O4)[C@H]12 [SPIRONOLACTONE]
30 | C[C@H]1c2cccc(O)c2C(=O)C2=C(O)[C@]3(O)C(=O)C(C(N)=O)=C(O)[C@@H](N(C)C)[C@@H]3[C@@H](O)[C@@H]21 [DOXYCYCLINE]
-9 | Cc1cccc(Nc2ccccc2C(=O)O)c1C [MEFENAMIC ACID]

same assay, conditions: read-out: 20mM inhibition LmjIPCS

SMILES | inhibition at 20000 µM [%]
CC1CCC(NC(=O)N(CCCl)N=O)CC1 (stereo not shown) [SEMUSTINE] | 15
COc1cc(C(C)=O)cc(OC)c1O [ACETOSYRINGONE] | 21
CCCC(=O)Nc1ncnc2c1ncn2[C@@H]1O[C@@H]2COP(=O)(O)O[C@H]2[C@H]1OC(=O)CCC [BUCLADESINE] | -1.88
CN(C)C(=O)Oc1cccc([N+](C)(C)C)c1 [NEOSTIGMINE BROMIDE] | 20
Oc1cccc2cccnc12 [OXYQUINOLINE] | 14
CC(Cc1ccc(O)cc1)NCC(O)c1cc(O)cc(O)c1 (stereo not shown) [FENOTEROL] | 15
O=P1(N(CCCl)CCCl)NCCCO1 (stereo not shown) [CYCLOPHOSPHAMIDE] | -0.87
C/C=C(/C)C(=O)O[C@H]1CC[C@@]2(C)[C@@H]3CC[C@H]4[C@]5(O)C[C@H](O)[C@@]6(O)[C@@H](CN7C[C@@H](C)CC[C@H]7[C@@]6(C)O)[C@]5(O)C[C@@]42O[C@]13O [CEVADINE] | 10
O=C(O)c1cc(O)c2cccc(O)c2n1 [X[…]] | 8
COc1ccc2c3c1O[C@H]1C[C@@H](O)C=C[C@@]31CCN(C)C2 [GALANTHAMINE] | 2.62
O=C1C=CC(=C(c2ccc(O)cc2)c2ccc(O)cc2)C=C1 [ROSOLIC ACID] | -11
O=C(OCC(O)CO)c1ccccc1Nc1ccnc2cc(Cl)ccc12 (stereo not shown) [GLAFENINE] | -16
COc1cc2c(c(OC)c1OC)-c1ccc(=O)c(O)cc1[C@@H](NC(C)=O)CC2 [COLCHICEINE] | 9
CO[C@H]1/C=C/O[C@@]2(C)Oc3c(C)c(O)c4c(O)c(c5c(nc6cc(C)ccn65)c4c3C2=O)NC(=O)/C(C)=C\C=C\[C@H](C)[C@H](O)[C@@H](C)[C@@H](O)[C@@H](C)[C@H](OC(C)=O)[C@@H]1C [RIFAXIMIN] | 6
C[C@@H]1O[C@@H](O[C@H]2CC[C@]3(C=O)[C@H]4CC[C@]5(C)[C@@H](C6=CC(=O)OC6)CC[C@]5(O)[C@@H]4CC[C@]3(O)C2)[C@H](O)[C@H](O)[C@H]1O [CONVALLATOXIN] | 16
CC[C@H]1OC(=O)C[C@@H](O)[C@H](C)[C@@H](O[C@@H]2O[C@H](C)[C@@H](O[C@H]3C[C@@](C)(O)[C@@H](O)[C@H](C)O3)[C@H](N(C)C)[C@H]2O)[C@@H](CC=O)C[C@@H](C)C(=O)/C=C/C(C)=C/[C@@H]1CO[C@@H]1O[C@H](C)[C@@H](O)[C@@H](OC)[C@H]1OC [TYLOSIN] | 5
NNCCc1ccccc1 [PHENELZINE] | 27
COC(=O)C1=CCCN(C)C1 [ARECOLINE] | -3.74

same assay, conditions: read-out: inhibition LmjIPCS

inhibition [%] | SMILES
15 | Nc1cc(N2CCCCC2)nc(N)[n+]1[O-] [MINOXIDIL]
21 | C[C@]12C=CC(=O)C=C1CC[C@@H]1[C@@H]2[C@@H](O)C[C@@]2(C)[C@H]1CC[C@]2(O)C(=O)CO [PREDNISOLONE]
9 | CN(C)CCOC(C)(c1ccccc1)c1ccccn1 (stereo not shown) [DOXYLAMINE]
7 | C=CCc1ccc(O)c(OC)c1 [EUGENOL]
8.53 | CCn1cc(C(=O)O)c(=O)c2cnc(N3CCCC3)nc21 [PIROMIDIC ACID]
10 | N[C@@H](C(=O)N[C@@H]1C(=O)N2C(C(=O)O)=C(Cl)CS[C@H]12)c1ccccc1 [CEFACLOR]
-6.5 | O=C(O)Cc1ccccc1Nc1c(Cl)cccc1Cl [DICLOFENAC]
11 | COc1ccc(C(=O)c2ccccc2O)c(O)c1 [DIOXYBENZONE]
7.55 | CN1C(C(=O)Nc2ccccn2)=C(O)c2sccc2S1(=O)=O [TENOXICAM]
7 | Cc1ncc([N+](=O)[O-])n1CCO [METRONIDAZOLE]
1.42 | C[C@]12CC[C@@H]3c4ccc(O)cc4CC[C@H]3[C@@H]1C[C@@H](O)[C@@H]2O [ESTRIOL]
2.66 | CCCn1c(=O)c2[nH]c(C3CCCC3)nc2n(CCC)c1=O
1.06 | C[C@@H]1CC[C@H]2[C@@H](C)C(=O)O[C@@H]3O[C@@]4(C)CC[C@@H]1[C@]32OO4 [ARTEMISININ]

same assay, conditions: screening of NINDS set, sheet Screen 1; read-out: inhibition LmjIPCS

inhibition [%] | SMILES
3 | COc1ccc(/C=C/c2cc(O)cc(O[C@@H]3O[C@H](CO)[C@@H](O)[C@H](O)[C@H]3O)c2)cc1O [RHAPONTIN]
4 | CC(=O)Oc1cccc(O)c1 [RESORCINOL MONOACETATE]
10 | O=C(O)c1ccc(S(=O)(=O)N(Cl)Cl)cc1 [HALAZONE]

SMILES | inhibition [%]
CC(=O)Oc1ccc2c(c1)CCC1C2CC[C@]2(C)C(=O)CCC12 (stereo partly shown) [ESTRONE ACETATE] | 8.56

same assay, conditions: single concentration 20mM as printed; screening of NINDS set, sheet Screen 1

20mM inhibition LmjIPCS [%] | SMILES
4 | CC1CCC(C(C)C)C(O)C1 (stereo not drawn) [MENTHOL(-)]
